Measured values published in patent publication US20120245123A1, “METHODS FOR IMPROVING BONE HEALTH IN INFANTS USING PREBIOTICS” (ABBOTT LABORATORIES, priority 2011, published 2012).

Legend:
[1] = system: femur, tibia and lumbar vertebra of rat offspring; assay: Micro-CT of trabecular and cortical bone architecture in rat offspring after maternal diet supplementation; type: in vivo, Sprague-Dawley rats
Protocol: Fifty 10-week-old pregnant Sprague-Dawley rats at the eleventh day of gestation (Charles Rivers Laboratories, Orleans Cedex, France) are housed under standardized environmental conditions (22° C., relative humidity of 50%, artificial lighting on for 12 hours/day) and are given free access to deionized water during the test period. The rats are randomly divided into five groups of feeding (n=10/group): (1) Control Group (“Control”), who receives a standard purified rodent diet (SPRD); […] (3) Prebiotic group (“Prebiotic”), who receives the SPRD containing 7.5% of the total carbohydrate as inulin-type fructans (Synergy-1®, Orafti, Belgium); […] During their suckling period, the pups receive only the dam's milk. […] Sacrifices of rat pups are carried out at birth, weaning and at the end of the adolescence period. The whole bone mineral density (BMD) and bone mineral content (BMC) of the skeleton are measured at birth and at weaning by using a pDEXA densitometer (Norland Corp., Fort Atkinson, Wis., USA). In adolescent offspring, the determination of BMC and BMD are analyzed in isolated bones (femur, tibia and vertebrae). Determination of the trabecular architecture parameters (trabecular thickness, separation and number), bone length and bone volume fraction (BV/TV) is analyzed by Micro-computed tomography (micro-CT). Micro-CT analysis is carried out by the Bone & Joint Research Group (University of Southampton, UK) and cortical parameters are performed by SCANCO Medical AG (Bruttisellen, Switzerland). Micro-computed tomography (micro-CT) is a technique for the nondestructive assessment and analysis of the three-dimensional trabecular and cortical bone structural properties. Scanning with micro-CT can be achieved at resolutions as low as 5 μm, allowing for the determination of porosities and subtle modeling and remodeling events of the bone tissue. Furthermore, true three-dimensional image reconstructions permit the assessment of bone microarchitecture as a three dimensional structure, providing critical information to images collected through histomorphometry. In the present Example, femoral, tibia and vertebra cancellous bones are assessed using Metris (XTek) Benchtop 160Xi CT scanner (University of Southampton) and vertebra cortical bone is assessed using MicroCT-40 computed tomography system (Scanco Medical, Basserdorf, Switzerland). […] Micro-CT analysis also allows for the determination of various quality properties of the cortical bone. The bone fragility is influenced not only by the architecture but also by the tissue “quality”. The strength of a bone as an organ depends on the material properties of bone as a tissue. Stiffness, or the resistance of the whole bone to deformation by a load, is a key material property and requires a destructive mechanical technique if measurements are done in vivo. The non-destructive analysis of the volumetric bone mineral density of cortical bone (cortical vBMD) by micro CT has an approximately linear relationship with the stiffness of the cortical bone. Cortical thickness (C.Th) is one of the variables that helps to evaluate the modeling-derived changes provoked by growth. The cortical porosity (C.Sp) reflects the intracortical remodeling in the bone. Remodeling, that occurs in the surfaces of bone, could be enhanced if the pore size becomes larger and, therefore, with the increase of the cortical porosity. An increment on cortical porosity weakens the bone and decreases the bone strength. Results are expressed as mean±SEM, and the probability level at which the differences are considered significant is set at p<0.05. One-way ANOVA is used to evaluate differences attributable to the diet in the different markers, previously testing the homogeneity of variances by Levene's. A posteriori post hoc tests are carried out by the Dunnet test.

[2] = system: skeleton of rat offspring (whole body, femur, tibia, lumbar vertebra); assay: pDEXA densitometry of BMD and BMC in rat offspring after maternal diet supplementation; type: in vivo, Sprague-Dawley rats; conditions: for lumbar vertebra BMC with respect to Control group / lumbar vertebra BMD with respect to Control group: adolescent offspring (90-day-old)
Protocol: Fifty 10-week-old pregnant Sprague-Dawley rats at the eleventh day of gestation (Charles Rivers Laboratories, Orleans Cedex, France) are housed under standardized environmental conditions (22° C., relative humidity of 50%, artificial lighting on for 12 hours/day) and are given free access to deionized water during the test period. The rats are randomly divided into five groups of feeding (n=10/group): (1) Control Group (“Control”), who receives a standard purified rodent diet (SPRD); […] (3) Prebiotic group (“Prebiotic”), who receives the SPRD containing 7.5% of the total carbohydrate as inulin-type fructans (Synergy-1®, Orafti, Belgium); […] During their suckling period, the pups receive only the dam's milk. […] Sacrifices of rat pups are carried out at birth, weaning and at the end of the adolescence period. The whole bone mineral density (BMD) and bone mineral content (BMC) of the skeleton are measured at birth and at weaning by using a pDEXA densitometer (Norland Corp., Fort Atkinson, Wis., USA). In adolescent offspring, the determination of BMC and BMD are analyzed in isolated bones (femur, tibia and vertebrae). Determination of the trabecular architecture parameters (trabecular thickness, separation and number), bone length and bone volume fraction (BV/TV) is analyzed by Micro-computed tomography (micro-CT). Micro-CT analysis is carried out by the Bone & Joint Research Group (University of Southampton, UK) and cortical parameters are performed by SCANCO Medical AG (Bruttisellen, Switzerland). DEXA scan is a technique used in the clinical practice for the analysis of bone health. Two main bone properties can be measured by this technique: Bone Mineral Content (BMC) and areal Bone Mineral Density (BMD). BMC determines the mass of mineral present in the whole body or in the selected skeletal region. BMC changes reflect the result of the metabolic “mass” balance between bone formation and bone destruction. BMC represented relative to the projected bone area refers to BMD. BMD represents the […] present in the bone region studied. […] The manufacturer's software for research in small animals calculates BMC and BMD for the isolated bone. Femur is measured from the femoral neck to the knee joint. Tibia is measured from the knee joint to the joint between tibia and calcaneus, also including fibula. […] Results are expressed as mean±SEM, and the probability level at which the differences are considered significant is set at p<0.05. One-way ANOVA is used to evaluate differences attributable to the diet in the different markers, previously testing the homogeneity of variances by Levene's. A posteriori post hoc tests are carried out by the Dunnet test.

[3] = adolescent offspring (90-day-old)

Compound	vertebra BV/TV enhanced in comparison with Control group [1, 3]	vertebra cortical porosity, effect [1, 3]	vertebra cortical vBMD, effect [1, 3]	vertebra trabecular separation respective to Control group [1, 3]	vertebra trabecular thickness enhanced in comparison with Control group [1, 3]	vertebrae cortical thickness, effect [1, 3]	trabecular number of femur and tibia respective to Control group ([1]; pups at delivery)	trabecular separation of femur and tibia respective to Control group ([1]; pups at delivery)	trabecular thickness of femur and tibia respective to Control group ([1]; pups at delivery)	increase in vertebra trabecular thickness respective to Control group ([1]; pups at weaning)	vertebra BV/TV ratio respective to Control group ([1]; pups at weaning)	vertebra trabecular separation respective to Control group ([1]; pups at weaning)	lumbar vertebra BMC with respect to Control group [2]	lumbar vertebra BMD with respect to Control group [2]	cortical features of the vertebra [1, 3]	vertebra BV/TV, effect versus Control group [1, 3]	vertebra trabecular thickness, effect versus Control group [1, 3]	whole body BMC relative to Control group ([2]; pups at weaning)
O=C([O-])[O-].[Ca+2] [Calcium, calcium carbonate]	22%	decrease	increase	significant decrease	17%	without significantly affecting	greater	decrease in the trabecular separation, although statistical differences are not achieved	lower	~30%	statistically different	statistically different	no differences	no differences	–	–	–	–
Vitamin D	–	–	–	–	–	–	–	–	–	–	–	–	no differences	no differences	does not show any improvement	No effect	No effect	lower
